Consider two molecules from US7169612B2, “Use of EDG2 receptor in an animal model of heart failure” (Sanofi-Aventis Deutschland GmbH, priority 2002, dated 2007).

Assay [1] relates to EDG2-overexpressing cardiomyocytes. In words: Shortening measurements (contractility) in single isolated cardiomyocytes after Ad-EDG2-GFP gene transfer. The assay is classed as cell-based, rabbit. The method, then: (§1) Contractility of infected cardiomyocytes was measured by an electro-optical monitoring system connected to online digitalized assessment of amplitude and velocity of shortening and of relaxation. Transgene-positive cardiomyocytes were identified by co-expression of GFP under fluorescent light. After the contraction amplitude reached stability, increasing concentrations of isoproterenol were applied at constant concentrations of lysophosphatidic acid (LPA; 10^−5 mol/l); or increasing LPA concentrations were added to constant concentrations of isoproterenol (10^−8 mol/l).
(§2) In order to investigate the effects of EDG2 on cardiomyocyte contractility, fractional shortening and velocity of shortening in single, isolated cardiomyocytes from failing hearts after ex vivo gene transfer was measured.
(§3) Single calcium-tolerant ventricular cardiomyocytes were isolated from failing White New Zealand rabbit hearts. Briefly, the hearts were perfused and digested with collagenase. The isolated cardiomyocytes were cultured in modified M199 on laminin-precoated dishes (5–10 μg/cm^2) at a density of 1.5×10^5 cells per cm^2 (at 5% CO2 and 37° C.). For contraction experiments, the cells were infected with adenovirus (multiplicity of infection (moi) 1 pfu/cell) 5 hours after plating. 50–60% of the infected cardiomyocytes expressed the transgene at this titer.

In assay [2] the test system is control GFP cardiomyocytes. The experiment in a line: Shortening measurements (contractility) in single isolated cardiomyocytes after Ad-GFP gene transfer (control). The assay is classed as cell-based, rabbit. Conditions: increasing concentrations of LPA after prestimulation with isoproterenol 10^-8 mol/l; control GFP group; FIG. 2. On the procedure: as §1, §2, §3

In another assay the target is T1, human EDG2 (Homo sapiens, UniProt Q92633).
T1 construct: host or cells: HEK293 cells expressing human EDG2
The conditions noted are these: HEK293 cells expressing the human EDG2 protein; LPA concentration dependent; cited from earlier work.

T1 sequence (Q92633 whole entry): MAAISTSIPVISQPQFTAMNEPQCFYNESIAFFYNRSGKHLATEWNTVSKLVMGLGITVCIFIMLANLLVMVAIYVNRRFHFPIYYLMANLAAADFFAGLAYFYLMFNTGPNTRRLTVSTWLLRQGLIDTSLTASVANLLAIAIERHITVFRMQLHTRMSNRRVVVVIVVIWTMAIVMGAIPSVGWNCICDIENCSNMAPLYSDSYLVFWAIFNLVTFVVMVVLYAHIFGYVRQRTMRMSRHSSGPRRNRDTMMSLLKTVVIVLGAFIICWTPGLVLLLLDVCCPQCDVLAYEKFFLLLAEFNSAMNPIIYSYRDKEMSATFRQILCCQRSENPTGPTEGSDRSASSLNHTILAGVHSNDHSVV

`CC(C)NCC(O)c1ccc(O)c(O)c1` (stereo not drawn) [isoproterenol]: the “inotropic effect (fractional shortening)” value in assay [1] (increasing concentrations of isoproterenol at constant LPA 10^-5 mol/l, EDG2-overexpressing versus control, FIG. 1) is “significantly lower positively inotropic effect”.
Regarding lysophosphatidic acid [LPA], the “inotropic effect (fractional shortening)” value is recorded as “no effect” in assay [2] and “significant negatively inotropic effect” in assay [1] (increasing concentrations of LPA after prestimulation with isoproterenol 10^-8 mol/l, FIG. 2). Besides, the “effect on basal contractility of cardiomyocytes” value in assay [1] (LPA 10^-5 mol/l, isolated cardiomyocytes from failing hearts) is “does not alter basal contractility”. In assay [1] (absence of prestimulation with isoproterenol), the “effect on contractility of cardiomyocytes” value is “no effect on the contractility”. The “response in serum response element reporter gene assay” value at human EDG2 is “elevated response”.
